What was measured:
CREB-binding protein = CREB-binding protein (Homo sapiens, UniProt Q92793); test: Inhibition of CBP (unknown origin)
[1] = molecular target: Histone acetyltransferase KAT6B (Homo sapiens, UniProt Q8WYB5); test: Inhibition of MYST4 (unknown origin)
[2] = molecular target: Histone acetyltransferase KAT2A (Homo sapiens, UniProt Q92830); test: Inhibition of GCN5 (unknown origin)
Histone acetyltransferase KAT2A, sequence (Q92830 whole entry): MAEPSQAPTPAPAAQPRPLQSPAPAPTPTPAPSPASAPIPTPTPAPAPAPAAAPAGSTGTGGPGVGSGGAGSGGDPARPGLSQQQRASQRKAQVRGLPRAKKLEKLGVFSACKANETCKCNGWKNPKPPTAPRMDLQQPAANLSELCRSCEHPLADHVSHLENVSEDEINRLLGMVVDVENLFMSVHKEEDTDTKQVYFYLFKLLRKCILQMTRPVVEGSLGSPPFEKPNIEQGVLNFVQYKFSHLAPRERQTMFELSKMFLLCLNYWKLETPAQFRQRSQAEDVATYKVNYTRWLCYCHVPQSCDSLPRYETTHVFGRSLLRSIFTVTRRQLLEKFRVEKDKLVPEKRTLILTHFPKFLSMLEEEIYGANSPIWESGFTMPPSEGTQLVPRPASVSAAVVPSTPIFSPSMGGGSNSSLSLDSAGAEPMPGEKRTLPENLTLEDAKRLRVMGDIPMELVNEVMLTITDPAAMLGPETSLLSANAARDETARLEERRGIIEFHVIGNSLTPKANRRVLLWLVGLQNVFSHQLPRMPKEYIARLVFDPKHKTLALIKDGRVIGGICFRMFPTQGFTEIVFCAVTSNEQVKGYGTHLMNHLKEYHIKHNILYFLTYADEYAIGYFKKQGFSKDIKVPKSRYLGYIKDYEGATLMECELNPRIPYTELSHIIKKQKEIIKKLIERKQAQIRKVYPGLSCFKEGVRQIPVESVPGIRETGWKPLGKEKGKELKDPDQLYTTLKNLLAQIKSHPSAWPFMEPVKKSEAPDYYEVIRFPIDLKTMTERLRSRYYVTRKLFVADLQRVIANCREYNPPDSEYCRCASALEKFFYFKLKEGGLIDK

Histone acetyltransferase KAT6B, sequence (Q8WYB5 whole entry): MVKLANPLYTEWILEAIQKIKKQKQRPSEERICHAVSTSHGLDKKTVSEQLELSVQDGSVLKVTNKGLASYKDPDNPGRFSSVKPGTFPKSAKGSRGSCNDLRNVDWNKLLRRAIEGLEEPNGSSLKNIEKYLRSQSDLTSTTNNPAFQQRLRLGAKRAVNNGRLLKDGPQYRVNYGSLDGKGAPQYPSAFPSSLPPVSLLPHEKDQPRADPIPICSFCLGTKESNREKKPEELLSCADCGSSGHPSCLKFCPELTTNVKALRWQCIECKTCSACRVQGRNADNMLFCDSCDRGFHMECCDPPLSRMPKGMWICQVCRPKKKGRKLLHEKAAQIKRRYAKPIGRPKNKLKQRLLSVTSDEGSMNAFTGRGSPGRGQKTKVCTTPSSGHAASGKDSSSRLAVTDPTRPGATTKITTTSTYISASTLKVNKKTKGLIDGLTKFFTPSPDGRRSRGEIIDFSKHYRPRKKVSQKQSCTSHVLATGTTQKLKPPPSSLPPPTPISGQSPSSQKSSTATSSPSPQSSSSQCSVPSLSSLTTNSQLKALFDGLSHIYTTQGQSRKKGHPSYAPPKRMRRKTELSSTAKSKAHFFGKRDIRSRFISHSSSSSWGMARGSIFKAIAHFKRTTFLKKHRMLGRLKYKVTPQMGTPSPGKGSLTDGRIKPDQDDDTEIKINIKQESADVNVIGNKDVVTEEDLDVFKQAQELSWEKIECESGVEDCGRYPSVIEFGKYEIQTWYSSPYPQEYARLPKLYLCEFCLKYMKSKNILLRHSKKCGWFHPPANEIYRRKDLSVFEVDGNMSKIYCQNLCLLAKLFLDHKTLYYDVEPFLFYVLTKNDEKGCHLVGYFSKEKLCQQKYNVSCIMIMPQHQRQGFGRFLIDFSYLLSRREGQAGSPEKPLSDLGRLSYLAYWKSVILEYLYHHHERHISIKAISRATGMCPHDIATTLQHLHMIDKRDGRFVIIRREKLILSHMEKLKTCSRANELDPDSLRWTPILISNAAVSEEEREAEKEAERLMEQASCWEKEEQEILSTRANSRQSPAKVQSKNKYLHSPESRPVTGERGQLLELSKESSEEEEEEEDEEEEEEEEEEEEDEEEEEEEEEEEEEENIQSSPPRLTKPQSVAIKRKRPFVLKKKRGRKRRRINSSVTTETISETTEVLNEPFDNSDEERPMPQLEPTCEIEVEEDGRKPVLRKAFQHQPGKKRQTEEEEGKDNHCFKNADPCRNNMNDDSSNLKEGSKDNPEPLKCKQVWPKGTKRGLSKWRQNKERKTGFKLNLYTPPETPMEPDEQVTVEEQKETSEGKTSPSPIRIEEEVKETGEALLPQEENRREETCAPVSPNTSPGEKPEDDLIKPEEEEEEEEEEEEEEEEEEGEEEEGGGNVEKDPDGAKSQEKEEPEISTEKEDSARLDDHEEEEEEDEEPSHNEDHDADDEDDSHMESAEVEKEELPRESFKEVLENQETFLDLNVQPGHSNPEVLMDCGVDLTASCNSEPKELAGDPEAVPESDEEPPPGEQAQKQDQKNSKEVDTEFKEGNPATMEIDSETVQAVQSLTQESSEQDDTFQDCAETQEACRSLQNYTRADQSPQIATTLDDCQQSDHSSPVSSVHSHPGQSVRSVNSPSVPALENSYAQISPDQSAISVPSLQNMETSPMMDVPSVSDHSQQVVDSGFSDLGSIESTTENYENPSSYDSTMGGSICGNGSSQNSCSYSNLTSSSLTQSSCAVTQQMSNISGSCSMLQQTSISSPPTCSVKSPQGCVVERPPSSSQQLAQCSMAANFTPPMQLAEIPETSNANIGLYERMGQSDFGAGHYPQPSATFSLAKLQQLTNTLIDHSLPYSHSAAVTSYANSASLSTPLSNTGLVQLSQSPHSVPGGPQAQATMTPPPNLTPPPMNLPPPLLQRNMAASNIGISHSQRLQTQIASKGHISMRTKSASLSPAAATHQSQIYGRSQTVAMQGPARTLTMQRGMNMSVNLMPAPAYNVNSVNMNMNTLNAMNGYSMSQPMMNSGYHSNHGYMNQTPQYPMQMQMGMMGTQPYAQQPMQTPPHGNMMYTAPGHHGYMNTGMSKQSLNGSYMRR

| IC50 (CREB-binding protein) [µM] | IC50 [1] [µM] | IC50 [2] [µM] | Compound |
| --- | --- | --- | --- |
| 3.4 | > 50 | > 50 | COC1=C(Cc2ccc(-c3cn(C)cc(C(=O)O)c3=O)s2)C(=O)N(c2ccc3ccccc3c2)C1 |
| 1.3 | > 50 | > 50 | COC1=C(Cc2ccc(-c3cn(Cc4ccccc4)cc(C(=O)O)c3=O)s2)C(=O)N(c2ccc3ccccc3c2)C1 |
